According to ChEMBL document CHEMBL1132916, “Total synthesis of pyrrolizidines 223H', 239K', 265H', and 267H' found in Madagascan frogs (Mantella) and their affinities for nicotinic acetylcholine receptor” (Bioorg Med Chem Lett, 2000):
pKi: −log10 of the molar value.

Each compound was assayed against Acetylcholine receptor (Torpedo californica, UniProt P02710+P02712+P02714+P02718) (assay: Compound was evaluated for inhibition of [3H]TCP binding to Nicotinic acetylcholine receptor of Torpedo californica).
Assay type: protein-complex assay, Tetronarce californica

Chain of Acetylcholine receptor (P02710 whole entry): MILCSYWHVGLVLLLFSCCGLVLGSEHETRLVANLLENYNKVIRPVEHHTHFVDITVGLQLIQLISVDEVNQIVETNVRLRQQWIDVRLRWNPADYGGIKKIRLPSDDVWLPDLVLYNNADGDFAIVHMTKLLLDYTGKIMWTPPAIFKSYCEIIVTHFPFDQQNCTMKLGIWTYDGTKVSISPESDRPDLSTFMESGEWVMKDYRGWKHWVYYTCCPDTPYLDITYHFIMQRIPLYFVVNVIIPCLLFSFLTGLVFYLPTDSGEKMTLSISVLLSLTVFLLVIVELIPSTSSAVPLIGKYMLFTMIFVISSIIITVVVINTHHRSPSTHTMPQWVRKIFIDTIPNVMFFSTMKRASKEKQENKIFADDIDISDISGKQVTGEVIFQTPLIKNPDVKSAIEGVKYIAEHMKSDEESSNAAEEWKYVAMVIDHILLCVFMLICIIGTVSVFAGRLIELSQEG
Chain of Acetylcholine receptor (P02712 whole entry): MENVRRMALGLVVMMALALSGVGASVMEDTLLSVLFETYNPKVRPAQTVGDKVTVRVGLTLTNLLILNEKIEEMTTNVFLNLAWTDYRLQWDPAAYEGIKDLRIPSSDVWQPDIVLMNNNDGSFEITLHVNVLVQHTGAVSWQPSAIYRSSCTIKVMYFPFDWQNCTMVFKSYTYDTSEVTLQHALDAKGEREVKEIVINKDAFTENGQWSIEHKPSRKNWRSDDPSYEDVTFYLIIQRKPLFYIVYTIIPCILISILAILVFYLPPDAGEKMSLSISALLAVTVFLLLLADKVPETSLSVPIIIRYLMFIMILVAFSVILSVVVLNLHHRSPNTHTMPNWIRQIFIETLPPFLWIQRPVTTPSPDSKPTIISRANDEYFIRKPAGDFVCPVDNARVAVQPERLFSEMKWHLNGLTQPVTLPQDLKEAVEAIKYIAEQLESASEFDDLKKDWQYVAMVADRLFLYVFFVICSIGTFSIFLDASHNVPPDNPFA
Chain of Acetylcholine receptor (P02718 whole entry): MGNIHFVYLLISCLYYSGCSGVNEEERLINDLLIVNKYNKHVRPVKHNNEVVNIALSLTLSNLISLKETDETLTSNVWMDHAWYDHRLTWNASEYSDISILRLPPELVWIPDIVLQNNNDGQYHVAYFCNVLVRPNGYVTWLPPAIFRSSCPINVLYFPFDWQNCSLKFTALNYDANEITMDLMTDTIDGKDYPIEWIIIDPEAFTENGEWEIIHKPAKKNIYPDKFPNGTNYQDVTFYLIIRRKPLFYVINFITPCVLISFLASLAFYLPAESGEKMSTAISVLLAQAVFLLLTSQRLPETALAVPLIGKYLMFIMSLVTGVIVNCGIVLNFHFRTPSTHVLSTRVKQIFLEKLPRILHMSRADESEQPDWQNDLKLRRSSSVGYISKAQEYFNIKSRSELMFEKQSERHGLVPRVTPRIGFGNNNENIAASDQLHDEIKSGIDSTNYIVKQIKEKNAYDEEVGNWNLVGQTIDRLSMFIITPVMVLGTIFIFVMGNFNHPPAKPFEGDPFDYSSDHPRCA
Chain of Acetylcholine receptor (P02714 whole entry): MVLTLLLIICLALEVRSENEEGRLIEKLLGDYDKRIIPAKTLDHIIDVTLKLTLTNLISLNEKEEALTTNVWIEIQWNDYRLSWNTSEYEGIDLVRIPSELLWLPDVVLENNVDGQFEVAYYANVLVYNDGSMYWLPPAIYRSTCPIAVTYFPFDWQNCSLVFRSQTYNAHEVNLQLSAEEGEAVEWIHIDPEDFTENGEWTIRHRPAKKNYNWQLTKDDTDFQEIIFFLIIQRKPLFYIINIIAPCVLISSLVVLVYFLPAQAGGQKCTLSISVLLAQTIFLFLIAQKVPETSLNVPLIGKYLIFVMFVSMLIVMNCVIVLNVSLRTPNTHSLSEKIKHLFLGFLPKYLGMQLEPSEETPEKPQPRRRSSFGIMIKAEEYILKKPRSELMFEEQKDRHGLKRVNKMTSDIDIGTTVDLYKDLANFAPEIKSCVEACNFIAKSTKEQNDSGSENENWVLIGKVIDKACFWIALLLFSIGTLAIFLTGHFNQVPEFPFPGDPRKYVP

Row | SMILES | pKi
1 | CCCCCCC[C@@H]1CC[C@H]2CC[C@H](C)N12 | 4.30
2 | C[C@H](O)CCCCC[C@@H]1CC[C@H]2CC[C@H](C)N12 | 2.48
3 | CCCC[C@@H]1CCCC2CC[C@@H](CCCC)N21 (stereo partly drawn) | 3.38
4 | C[C@@H](O)CCCCC[C@@H]1CC[C@H]2CC[C@H](C)N12 | 2.08
5 | CCC[C@H]1CC[C@@H]2CC[C@@H](CCCCC[C@@H](C)O)N21 | 2.51
6 | CCCC[C@H]1CCCC2CC[C@@H](CCCC)N21 (stereo partly drawn) | 3.43
7 | CCC[C@H]1CC[C@@H]2CC[C@@H](CCCCC[C@H](C)O)N21 | 2.51
8 | CCC[C@H]1CC[C@@H]2CC[C@@H](CCCCCC(C)=O)N21 | 3.08
